Test results taken from publication PMC8391236, “Effect of Pterostilbene, a Natural Derivative of Resveratrol, in the Treatment of Colorectal Cancer through Top1/Tdp1-Mediated DNA Repair Pathway” (Cancers, 2021).

How the values were obtained:
Tdp1 = assay: Western blot of Tdp1 protein in cells; format: cell-based, Human; conditions: 6 h
Experimental: CL187 cells were treated with RE or PTE for 6 or 12 h, collected, and placed into lysis buffer (KeyGEN BioTECH, Nanjing, China). The total protein content in the cell lysates was measured using a BCA kit. Equivalent amount of total protein (30 μg) was loaded onto 10% SDS-PAGE gel. Electrophoresis was performed at 80 V for 25 min. After the sample went through concentrated gel, the voltage was adjusted to 120 V. Electrophoresis was stopped when the bromophenol blue band approached the bottom of the gel. After being transferred to PVDF membranes, the samples were incubated separately with 3 types of primary antibodies Top1, Tdp1, and P53 rabbit mAb (CST, Boston, MA, USA), followed by the incubation with secondary antibody goat anti-rabbit IgG (HRP)-conjugated (1:3000). ECL kit (New Cell and Molecular Biotech, Suzhou, China) was used for color development, and the images were collected by the gel imaging system (Tanon-5200, Shanghai, China).

[1] = test system: liver, kidney, lung, and paracancerous colon tissues; assay: HE staining of organs of orthotopic xenograft mice; format: in vivo; conditions: orthotopic xenograft nude mice
Experimental: The mice were anaesthetized with 10% chloral hydrate and fixed on the operating table. After the abdomen of the mice was disinfected with iodine, a small section of the large intestine was squeezed out of the surgical opening. The 0.1 mL (per mouse) CL187 cell suspension (1 × 10^7 /mL) was inoculated into the colon wall of nude mice. After the inoculation, the large intestine was placed into the mouse abdominal cavity. After the wound was sutured, the mice were put into cages until they naturally woke up. After 10 days of inoculation, the animals were randomly divided into 4 groups (6 mice per group). Vector control group was intraperitoneally injected with 5% DMSO and 95% saline containing 30% HP-β-CD (i.p.). The drug dosage was designed according to the results of the previous pharmacokinetic experiment. Experimental Group 1 was intraperitoneal injected (i.p.) with PTE 100 mg/kg, and experiment Group 2 was intragastric administrated (i.g.) with PTE 500 mg/kg, once a day. The bioavailability of PTE was the same in the animals in the above regimens. Positive control group was injected with irinotecan, 20 mg/kg, twice a week. During the experiment, the changes of body weight of nude mice were recorded. After 21 days, the nude mice were sacrificed, the tumor blocks were removed surgically, weighed, and recorded. Tumor and organ tissues were paraffin-embedded and sectioned into […] after being fixed in 4% of paraformaldehyde solution for 24 h. The sections were deparaffinized and rehydrated before detection. For histological observation, tumor sections were stained with hematoxylin and eosin (HE), and then observed by an inverted microscopy (Olympus, Japan).

SW480 = assay: Cell viability assay (CCK-8); format: cell-based; conditions: Homo sapiens
Experimental: (§1) PTE or RE were dissolved in DMSO and diluted with culture medium to 1–100 μM. The final concentration of DMSO was less than 0.1%, and 0.1% DMSO as negative control. CPT, as Top1 inhibitor, was diluted to 0.5 μM [36, 37], and FM, as Tdp1 inhibitor was diluted to 25 μM [38]. Exponentially growing cells were seeded in 96-well plates (5 × 10^3 cells/well) for 12 h. Various drugs were added separately and incubated for 24, 48, and 72 h. Cell viability was determined by CCK-8 (Beyotime Biotechnology, Shanghai, China) assay. […]
(§2) The drug concentration required for inhibiting cell proliferation by 50% (IC50) was determined by interpolation from dose-response curves.

HCoEpiC- = assay: Proliferation of non-tumor cells (CCK-8); format: cell-based
Experimental: The final concentration of DMSO was less than 0.1%, and 0.1% DMSO as negative control. CPT, as Top1 inhibitor, was diluted to 0.5 μM [36, 37], and FM, as Tdp1 inhibitor was diluted to 25 μM [38]. Exponentially growing cells were seeded in 96-well plates (5 × 10^3 cells/well) for 12 h. Various drugs were added separately and incubated for 24, 48, and 72 h. Cell viability was determined by CCK-8 (Beyotime Biotechnology, Shanghai, China) assay. […]
as §2

Top1 mRNA = assay: qPCR of Top1 mRNA in cells; format: cell-based, Human; conditions: 6 h
Experimental: CL187 cells were treated with different concentrations of RE and PTE for 6, 12, 24 h, collected, and added with TRIzol (Thermo Fisher Scientific, Waltham, MA, USA). RNA was precipitated by isopropyl alcohol and washed with 75% ethanol prepared from diethylpyrocarbonate (DEPC) water. The obtained total RNA was dissolved in DEPC water and reverse transcribed into cDNA by a Hifair Ⅲ 1st strand cDNA Synthesis SuperMix for qPCR Kit (Yeasen Biotech, Shanghai, China). The resultant cDNA was used as a template, and the primer sequences were (5′→3′): Top1: F: […], R: […]; Tdp1: F: ACCAGAGTTCAGGAAGAAG, R: TCATAGAGCAGCAGCATC. GAPDH: F: […], R: TCTTCCTCTTGTGCTCTTG. Transcription levels of Top1, Tdp1, and GAPDH genes were determined by qPCR. The qPCR was performed as follows: 95 °C for 10 min, 40 cycles of 95 °C for 10 s, and 60 °C for 30 s. The cycle threshold (Ct) value was determined, and the RQ value was calculated.

CL187 cells = assay: Cell cycle analysis by flow cytometry; format: cell-based, Human; conditions: 48 h, blank control 14.70%
HCT-8 = assay: Cell viability assay (CCK-8); format: cell-based, Human
Experimental: as §1, §2

CL187 = assay: Cell viability assay (CCK-8); format: cell-based, Human
Experimental: as §1, §2

HCT-116 = assay: Cell viability assay (CCK-8); format: cell-based, Human
Experimental: as §1, §2

LoVo = assay: Cell viability assay (CCK-8); format: cell-based, Human
Experimental: as §1, §2

COLO205 = assay: Cell viability assay (CCK-8); format: cell-based, Human
Experimental: as §1, §2

COc1cc(/C=C/c2ccc(O)cc2)cc(OC)c1 [PTE, 3,5-dimethoxy-4′-hydroxy-trans-stilbene]
Tdp1 protein content (Tdp1; Tdp1-over CL187 cells): reduced in dese-dependent manner | Tdp1 protein content (Tdp1; siRNA-Top1 CL187 cells): reduced in a dose-dependent manner | Tdp1 protein content (Tdp1; wild-type CL187 cells): decreased in PTE treatment group, but neither in dese-dependent and significant manner | effect on lung inflammation (HE sections) [1]: no significant effect on lung inflammation | damage to the liver (HE sections) ([1]; treatment group vs solvent control): caused no additional damage | IC50 (SW480; SW480, 24 h): 113 ± 24 µM | IC50 (SW480; SW480, 48 h): 35.7 ± 9.32 µM | IC50 (SW480; SW480, 72 h): 40.5 ± 10.8 µM | IC50 (HCoEpiC-; 24 h): 444 µM | IC50 (HCoEpiC-; 48 h): 250 µM | IC50 (HCoEpiC-; 72 h): 83.4 µM | Top1 mRNA expression (Top1 mRNA; Tdp1-over CL187 cells): suppressed, but there was no significant difference | Top1 mRNA expression (Top1 mRNA; siRNA-Tdp1 CL187 cells): significantly down-regulated | Top1 mRNA expression (Top1 mRNA; wild-type CL187 cells): significantly inhibited | proportion of G2/M-phase cells (CL187 cells; CL187, 10 μM): 48.69% | proportion of G2/M-phase cells (CL187 cells; CL187, 20 μM): 52.98% | proportion of G2/M-phase cells (CL187 cells; CL187, 50 μM): 55.33% | IC50 (HCT-8; HCT-8, 72 h, listed as Pterostilbene): 25 ± 6.62 µM | IC50 (HCT-8; Homo sapiens, HCT-8, 24 h): 29.9 ± 10.6 µM | IC50 (HCT-8; Homo sapiens, HCT-8, 48 h): 25.4 ± 8.25 µM | IC50 (HCT-8; Homo sapiens, HCT-8, 72 h): < 30 µM | IC50 (CL187; CL187, 72 h): < 30 µM | IC50 (CL187; CL187, 72 h, listed as Pterostilbene): 14.4 ± 2.93 µM | IC50 (CL187; Homo sapiens, 24 h, CL187, 24 h): 24.2 ± 11.6 µM | IC50 (CL187; Homo sapiens, 48 h, CL187, 48 h): 13.8 ± 4.7 µM | IC50 (HCT-116; HCT-116, 72 h, listed as Pterostilbene): 21.4 ± 6.79 µM | IC50 (HCT-116; Homo sapiens, HCT-116, 24 h): 31.2 ± 10.2 µM | IC50 (HCT-116; Homo sapiens, HCT-116, 48 h): 15.4 ± 4.49 µM | IC50 (HCT-116; Homo sapiens, HCT-116, 72 h): < 30 µM | IC50 (LoVo; 72 h): < 30 µM | IC50 (LoVo; 72 h, listed as Pterostilbene): 12 ± 4.01 µM | IC50 (LoVo; Homo sapiens, 24 h): 106 ± 28.6 µM | IC50 (LoVo; Homo sapiens, 48 h): 14.2 ± 4.84 µM | IC50 (COLO205; COLO205, 72 h): < 30 µM | IC50 (COLO205; COLO205, 72 h, listed as Pterostilbene): 13.6 ± 6.1 µM | IC50 (COLO205; Homo sapiens, COLO 205, 24 h, COLO205, 24 h): 44.4 ± 16.7 µM | IC50 (COLO205; Homo sapiens, COLO 205, 48 h, COLO205, 48 h): 24.5 ± 9.13 µM
